{
  "source": "patent US4070492A",
  "about": "“Propranolol assay” (priority 1977, dated 1978)",
  "key": {"[1]": {"tested_on": "both antisera (against d,l-propranolol and l-propranolol)", "assay": "Competition with 3H-propranolol for binding, results stated once for both antisera", "design": "species or system rabbit", "conditions": "for inhibition of 3H-propranolol binding: at 100 ng; for recognition / cross-reaction / interference: in words", "description": "(§1) New Zealand albino rabbits were immunized with propranolol-BSA immunogens once a week for 4 weeks and then once every 2 to 4 weeks. The immunogen was dissolved in phosphate-buffered saline (pH 7.4)\n(§2) and emulsified with an equal amount of complete Freund's adjuvant. One ml. of emulsion containing 500 μg of immunogen was injected into four foot pads and intramuscularly into both thighs. Bleedings were taken from the central ear artery 6 to 8 days after the third booster injection. Blood was allowed to clot overnight at 4° C. and centrifuged at 2,000 rpm for 15 mintues to separate serum.\n(§3) Antisera were diluted in a 2.5% solution of normal rabbit serum in 1:10 phosphate buffered saline. 0.4 ml. of this mixture was added to the assay tubes (10 × 75 mm). 10 μ1. of unknown or standard solutions were added to the tubes. 0.1 ml. of radioactive, d,l-propranolol solution containing 60 pg. (approximately 2,500 cpm) for antiserum against […] and 120 pg. (approximately 5,000 cpm) for antiserum against l-propranolol was subsequently added. The tubes were incubated overnight at 4° C. Antibody bound propranolol was separated by the addition of 0.5 ml. of saturated ammonium sulfate. The pellet was washed once with 0.8 ml. of 50% saturated ammonium sulfate, then dissolved in 0.5 ml. of water and transferred into a counting vial. The tube was washed twice with 3 ml. of Riafluor. Another portion of 6 ml. Riafluor was added to the vial to give a total volume of 12 ml., and the radioactivity was counted in a scintillation counter. The dilutions of the antisera used were 1:10,000 and 1:1000 respectively against d,l-propranolol and l-propranolol.\n(§4) The sensitivity of radioimmunoassay for d,l-propranolol and its l-isomer in phosphate-buffered saline and serum were determined.\n(§5) ID50 refers to the amount of the compound required to produce 50% inhibition of ^3 H-propranolol-antibody complex formation."}, "[2]": {"tested_on": "antiserum against l-propranolol", "assay": "Competition with 3H-propranolol for binding to antiserum against l-propranolol (radioimmunoassay specificity)", "design": "species or system rabbit", "conditions": "for inhibition of 3H-propranolol binding: at 100 ng", "description": "as §1, §2, §3, §4, §5"}, "[3]": {"tested_on": "antiserum against d,l-propranolol", "assay": "Competition with 3H-propranolol for binding to antiserum against d,l-propranolol (radioimmunoassay specificity)", "design": "species or system rabbit", "conditions": "for inhibition of 3H-propranolol binding: at 100 ng; for recognition by antiserum against d,l-propranolol: d- versus l-propranolol", "description": "as §1, §2, §3, §4, §5"}, "[4]": {"assay": "Disposition of propranolol in rats: serum/blood levels by radioimmunoassay", "conditions": "rat; for disposition in blood: 1 mg/kg racemic propranolol i.v., in words; for half-life: blood, iv, 1 mg/kg"}, "[5]": {"tested_on": "heart rate increase caused by isoproterenol", "assay": "Inhibition by propranolol of heart rate increase caused by isoproterenol in anesthetized rats", "assay_type": "in vivo", "conditions": "rat, 1 mg/kg i.v.", "quoted_text": "Increase in heart rate in response to isoproterenol 0.5 g/kg i.v. was compared beforeand at varying time after the administration of propranolol."}, "[6]": {"conditions": "rat, in vivo, iv, 1 mg/kg"}, "rat heart": {"tested_on": "rat heart", "assay": "Disposition of propranolol in rats: heart levels by radioimmunoassay", "conditions": "1 mg/kg d,l-propranolol i.v."}, "[7]": {"assay": "Disposition of propranolol in rats: heart levels by radioimmunoassay", "conditions": "rat, heart, iv, 1 mg/kg"}, "[8]": {"conditions": "antiserum against l-propranolol"}},
  "note": "Entries after “also recorded” stand apart in the source; their conditions may differ.",
  "data": [
    {"molecule": "CC(C)NCC(O)c1ccc(O)c(O)c1", "note": "(stereo not drawn) [isoproterenol]", "values": [
      {"measurement": "inhibition of 3H-propranolol binding", "setting": "[1]", "value": "no inhibition"},
      {"measurement": "recognition / cross-reaction / interference", "setting": "[1]; both antisera", "value": "no cross-reaction"}
    ]},
    {"molecule": "CC(C)NCC(O)COc1ccc(O)c2ccccc12", "note": "(stereo not drawn) [4-hydroxy-propranolol]", "values": [
      {"measurement": "concentration needed for recognition by the l-antibody", "setting": "[2]; [8]", "value": "≥ 35", "unit": "times greater"},
      {"measurement": "concentration needed for recognition by the d,l-antibody", "setting": "[3]; antiserum against d,l-propranolol", "value": "≥ 70", "unit": "times greater"}
    ]},
    {"molecule": "NCCc1ccc(O)c(O)c1", "note": "[dopamine]", "values": [
      {"measurement": "inhibition of 3H-propranolol binding", "setting": "[1]", "value": "no inhibition"}
    ]},
    {"molecule": "O=C(O)COc1cccc2ccccc12", "note": "[1-naphthoxy acetic acid]", "values": [
      {"measurement": "concentration needed for interference with the assay", "setting": "[1]; both antisera", "value": "at least 1,000 times greater"},
      {"measurement": "inhibition of 3H-propranolol binding", "setting": "[2]; anti-l-propranolol antiserum", "value": 25, "unit": "%"},
      {"measurement": "inhibition of 3H-propranolol binding", "setting": "[3]; anti-d,l-propranolol antiserum", "value": 10, "unit": "%"}
    ]},
    {"molecule": "CC(C)N", "note": "[isopropylamine]", "values": [
      {"measurement": "inhibition of 3H-propranolol binding", "setting": "[1]", "value": "no inhibition"},
      {"measurement": "concentration needed for interference with the assay", "setting": "[1]; both antisera", "value": "at least 1,000 times greater"}
    ]},
    {"molecule": "Oc1ccc(O)c2ccccc12", "note": "[1,4-naphthalene-diol]", "values": [
      {"measurement": "concentration needed for interference with the assay", "setting": "[1]; both antisera", "value": "at least 1,000 times greater"},
      {"measurement": "inhibition of 3H-propranolol binding", "setting": "[2]; anti-l-propranolol antiserum", "value": 17, "unit": "%"},
      {"measurement": "inhibition of 3H-propranolol binding", "setting": "[3]; anti-d,l-propranolol antiserum", "value": "no inhibition"}
    ]},
    {"molecule": "NCC(O)c1ccc(O)c(O)c1", "note": "(stereo not drawn) [norepinephrine]", "values": [
      {"measurement": "inhibition of 3H-propranolol binding", "setting": "[1]", "value": "no inhibition"}
    ]},
    {"molecule": "CC(C)NCC(O)c1ccc(Cl)c(Cl)c1", "note": "(stereo not drawn) [dichloroisoproterenol]", "values": [
      {"measurement": "recognition / cross-reaction / interference", "setting": "[1]; both antisera", "value": "not significant recognized by either antisera"},
      {"measurement": "inhibition of 3H-propranolol binding", "setting": "[2]; anti-l-propranolol antiserum", "value": "no inhibition"},
      {"measurement": "inhibition of 3H-propranolol binding", "setting": "[3]; anti-d,l-propranolol antiserum", "value": 13, "unit": "%"}
    ]},
    {"molecule": "CC(C)NCC(O)c1ccc2ccccc2c1", "note": "(stereo not drawn) [pronethalol]", "values": [
      {"measurement": "recognition / cross-reaction / interference", "setting": "[1]; both antisera", "value": "not significant recognized by either antisera"},
      {"measurement": "inhibition of 3H-propranolol binding", "setting": "[3]; anti-d,l-propranolol antiserum", "value": 45, "unit": "%"}
    ]},
    {"molecule": "Oc1cccc2ccccc12", "note": "[1-naphthol]", "values": [
      {"measurement": "concentration needed for interference with the assay", "setting": "[1]; both antisera", "value": "at least 1,000 times greater"},
      {"measurement": "inhibition of 3H-propranolol binding", "setting": "[2]; anti-l-propranolol antiserum", "value": 45, "unit": "%"},
      {"measurement": "inhibition of 3H-propranolol binding", "setting": "[3]; anti-d,l-propranolol antiserum", "value": 25, "unit": "%"}
    ]},
    {"molecule": "CC(C)NCC(O)COc1cccc2ccccc12", "note": "(racemic) [propranolol]", "values": [
      {"measurement": "disposition in blood", "setting": "[4]", "value": "declines rapidly in the blood following the injection"},
      {"measurement": "time by which effect on heart rate disappeared", "setting": "[5]", "value": "≤ 90", "unit": "min"},
      {"measurement": "suppression of increase in heart rate due to isoproterenol", "setting": "[5]; first 30 minutes after administration", "value": "markedly suppressed"}
    ]},
    {"molecule": "CC(C)NC[C@@H](O)COc1cccc2ccccc12", "note": "[d-propranolol]", "values": [
      {"measurement": "half-life", "setting": "[4]", "value": 23.8, "unit": "min"},
      {"measurement": "disposition in blood", "setting": "[4]", "value": "remains in the blood and is metabolized rapidly"},
      {"measurement": "amount of l-form as which 100 pg of the d isomer is recognized by the l-antibody", "setting": "[2]; 100 pg of d isomer", "value": 7, "unit": "pg"},
      {"measurement": "ID50 and 95% confidence limits", "setting": "[2]; anti-l-propranolol antiserum, amount for 50% inhibition of 3H-propranolol-antibody complex formation, 95% confidence limits in parentheses", "value": 1656, "unit": "pg"},
      {"measurement": "ID50 relative to that for l-propranolol", "setting": "[2]; [8]", "value": 14, "unit": "times"},
      {"measurement": "ID50 and 95% confidence limits", "setting": "[3]; anti-d,l-propranolol antiserum, amount for 50% inhibition of 3H-propranolol-antibody complex formation, 95% confidence limits in parentheses", "value": 314, "unit": "pg"},
      {"measurement": "recognition by antiserum against d,l-propranolol", "setting": "[3]", "value": "to the same degree"},
      {"measurement": "initial blood level relative to l-propranolol", "setting": "[6]", "value": "three times higher"}
    ]},
    {"molecule": "OCC(O)COc1cccc2ccccc12", "note": "(stereo not drawn) [propranolol glycol, 1-(1-naphthoxy)-2,3-propylene glycol]", "values": [
      {"measurement": "ID50 relative to values for l-propranolol and d,l-propranolol", "setting": "[1]; both antisera", "value": "9-14 times"}
    ]},
    {"molecule": "CNCC(O)c1ccc(O)c(O)c1", "note": "(stereo not drawn) [epinephrine]", "values": [
      {"measurement": "inhibition of 3H-propranolol binding", "setting": "[1]", "value": "no inhibition"}
    ]},
    {"molecule": "CC(C)NC[C@H](O)COc1cccc2ccccc12", "note": "[l-propranolol]", "values": [
      {"measurement": "half-life", "setting": "[4]", "value": 52, "unit": "min"},
      {"measurement": "half-life relative to d-isomer", "setting": "[4]; 1 mg/kg d,l-propranolol i.v.", "value": "almost twice that of the d-isomer"},
      {"measurement": "selectivity of antiserum against l-propranolol", "setting": "[2]; l-propranolol versus d-isomer", "value": "able to discriminate the l-propranolol selectively; also recorded: more selectively than the d-isomer"},
      {"measurement": "decline in heart compared with blood", "setting": "rat heart; after half an hour", "value": "almost parallel to that found in the blood"},
      {"measurement": "heart uptake / presence in heart", "setting": "rat heart; in words, 1 mg/kg", "value": "rapid accumulation of l-propranolol by the heart; also recorded: stereospecific uptake of l-propranolol by the rat heart; also recorded: only l-propranolol could be found in the heart"},
      {"measurement": "half-life", "setting": "[7]", "value": 62, "unit": "min"},
      {"measurement": "recognition by antiserum against d,l-propranolol", "setting": "[3]", "value": "to the same degree"}
    ]}
  ]
}
